Experimental data from US20230404988A1, “PROSTAGLANDIN RECEPTOR AGONISTS FOR USE IN THE TREATMENT OF A CORONAVIRUS INFECTION SUCH AS COVID-19” (priority 2020, published 2023).

What was measured:
[1] = system: ACE2; test: ACE2 expression in A549 cells (RT-PCR/SYBR green PCR, immunoblot); format: cell-based, human; details: incubation of 3 h to 24 h
Method: Human epithelial NSLC cell lines A549 were purchased from ATCC (catalogue number: ATCC CCL-185, American Type Culture Collection (ATCC), Manassas, VA). A549 cells were maintained in DMEM containing 10% fetal bovine serum (FBS), 4 mM GlutaMax (Thermo Scientific, Waltham, MA), 500 μg/mL Normocin (InvivoGen, San Diego, CA), 100 units/mL penicillin, and […] streptomycin (Thermo Scientific).
(§1) Gene downregulation of ACE2 has been evaluated with by RT-PCR and SYBR green PCR analyses. Total RNA was extracted from the cells or tissues and purified with the TRIzol reagent according to the manufacturer's protocol (Invitrogen). RNA was reverse transcribed by SuperScript® III reverse transcriptase (Invitrogen). The genes were amplified by with specific primers designed using BLAST alignment. Three housekeeping gene, GAPDH, (3-actin gene, and rare PBGD (porphobilinogen deaminase) gene were combined for normalization. Relative expression levels have been evaluated with the parameter of (ΔCt) of different human cell lines and human GNB cells after treatment with EP2, EP4 or EP2/EP4 agonists at a dose response concentration varying from 10E-2 to 10E2 fold of their respective EC50 of binding activity on each relevant EP receptor.
(§2) Immunoblot analysis on A549 cells treated with different EP2 and/or EP4 agonists doses ranging from 10E-2 to 10E2 fold of their respective binding EC50 is performed by lysing cells as described by Jia et al. (J. Virol., 2005, 79(23), 14614-14621).

[2] = system: ACE2; test: ACE2 expression in human primary ciliated cells obtained by gentle nasal brushing (RT-PCR/SYBR green PCR, immunoblot); format: cell-based; details: GNC cells, incubation of 3 h to 24 h
Method: Human primary ciliated cells obtained by gentle nasal brushing cells (GNBC cells) are collected from different patient sources, as described by Veit et al. (Nat. Med., 2018, 24(11), 1732-1742). Ciliogenesis is performed on cells plated on to poly-lysine-coated coverslips in 3.5-cm plates at 0.4×10^6 cells per well, allowed to attach for 24 hr, and then serum starved for 48 hr.
as §1, §2

[3] = system: SARS-CoV-2; format: cell-based; details: human primary cells from airways biopsies infected with SARS-CoV-2 (MOI 0.001), 10 μM, day 2 post-infection, vs non-treated cells (FIG. 1)
[4] = system: SARS-CoV-2; format: cell-based; details: cells infected with SARS-CoV-2 (Example 4)
[5] = system: UREC cells; test: Microarray transcriptome analysis of UREC cells (Affymetrix Human ClariomD, Reactome/GO analysis); format: cell-based
Method: Cell Culture Immortalized temperature-sensitive URECs are maintained and resuspended in complete RCGM (RCGM medium (0.5% FBS), 1.5% (v/v) certified FBS). Cells were seeded at 116,000 cells/well (350 k cells/cm 2) in 200 μl total volume of complete RCGM medium. Seed in triplicates per each experimental condition. Incubate at 39° C. to stop proliferation for 72 hours. After 72 hrs of cell growth, remove complete RCGM media. Replace with fresh complete RCGM media (2% FBS) containing the drug (at either 0.2, 2, or 10 μM) or vehicle control (media alone or 0.04% DMSO) at the appropriate concentration.
RNA Extraction. Extract RNA using RNeasy Micro Kit (Qiagene) using supplier's procedure. In short, disrupt the cells by adding QIAzol Lysis Reagent. Scratch each well with the pipette tip and pipette to mix. Homogenize the cells by vortexing. Adjust sample volume. Homogenize by passing the lysate through a 20-gauge needle. Precipitate proteins using chloroform solution. Load into a RNeasy MinElute column. Wash and elute following supplier's procedure. Prepare sample at a concentration of 5 ng/μl for quality control and measure by spectrometry (Xpose, Trinean) and confirming RNA as a RIN using capillary electrophoresis (TapeStation, Agilent). The average yield of extraction is 0.4±0.2 μg/100,000 cells (1 well of a 96-well plate).
Microarray data analysis. Affymetrix Human ClariomD were used following manufacturers protocols. Affymetrix Human ClariomD data were normalized using quantile normalization with adjustment based on the median intensity of probes with similar GC content (using Affymetrix Power Tools). Background correction was made using the antigenomic probes. Only probes targeting exons annotated from FAST DB v2016_1 transcripts were selected. Probes were considered as expressed if the DABG p-value ≤0.05 (Detection Above Background p-values were calculated using Affymetrix Power Tools) in more or equal than 60% of samples. Genes were considered as expressed if more or equal than 50% of their probes are expressed Minimum 4 selected probes were required to assess gene expression. If possible only high-specific probes were selected (i.e., not overlapping with repeat regions; not cross-hybridizing; and 40≤GC %≤60). In addition, if possible, only probes targeting constitutive gene regions were selected (i.e., targeting at least 75% of transcripts of a given gene). We performed a paired Student's t-test to compare gene intensities in the different biological replicates.
Analysis at the splicing level was first performed taking into account only exon probes (“EXON” analysis) in order to potentially detect new alternative events that could be differentially regulated (i.e., without taking into account known alternative events). Analysis at the splicing level was also performed by taking into account known patterns (“PATTERN” analysis) using the FAST DB splicing patterns annotation (i.e., for each gene, all possible splicing patterns were defined by comparing exon content of transcripts). All types of alternative events can be analyzed: Alternative first exons, alternative terminal exons, cassette exon, mutually exclusive exons, alternative 5′ donor splice site, alternative 3′-acceptor splice sites, intron retention, internal exon deletion and complex events corresponding to mix of several alternative event categories). “EXON” and “PATTERN” analyses were based on the splicing-index calculation. Results were considered statistically significant for uncorrected p-values ≤0.05 and fold-changes ≥2.0. Finally, significant results from “EXON” and “PATTERN” analyses were merged to obtain a single result list.
Unsupervised analysis. The PCA has been performed using “prcomp” function in R and the 2 first dimensions were plotted. The clustering has been performed using “dist” and “hclust” functions in R, using Euclidean distance and Ward agglomeration method. […]

[6] = 71 genes in term, UREC cells, 2 micromolar PGE1 vs non treated control
[7] = UREC cells, 2 micromolar PGE1 vs non treated control, regulation up

Compound: O=C(O)COc1cccc(CN(Cc2ccc(-n3cccn3)cc2)S(=O)(=O)c2cccnc2)c1 [Lab1, taprenepag]
- expression of mRNA of ACE2 [1]: significantly reduce
- protein level of ACE2 [1]: significantly reduce
- expression of mRNA of ACE2 [2]: significantly reduce
- protein level of ACE2 [2]: significantly reduce
- virus replication (viral RNA) [3]: able to decrease virus replication
- effect on SARS-CoV-2 infection [4]: significant effect

Compound: CC#CCC(C)[C@H](O)/C=C/[C@@H]1[C@H]2C/C(=C/CCCC(=O)O)C[C@H]2C[C@H]1O (stereo partly shown) [Lab2, iloprost]
- effect on SARS-CoV-2 infection [4]: significant effect

Compound: CCCCC(C)(C)[C@H](O)/C=C/[C@H]1[C@H](O)CC(=O)[C@@H]1C/C=C\CCCC(=O)O [Lab3, 16-16-dimethyl-PGE2]
- effect on SARS-CoV-2 infection [4]: significant effect

Compound: CCCCC[C@H](O)CC[C@H]1[C@H](O)CC(=O)[C@@H]1CCCCCCC(=O)O [Lab4, 13,14-dihydro-PGE1]
- effect on SARS-CoV-2 infection [4]: significant effect

Compound: O=C1CC[C@H](/C=C/[C@@H](O)C(F)(F)c2ccccc2)N1CCCCCCc1nn[nH]n1 [Lab5, L902688]
- effect on SARS-CoV-2 infection [4]: significant effect

Compound: CCCCC[C@H](O)/C=C/[C@H]1[C@H](O)CC(=O)[C@@H]1CCCCCCC(=O)O [PGE1, Prostaglandin E1]
- expression of mRNA of ACE2 [1]: significantly reduce
- protein level of ACE2 [1]: significantly reduce
- expression of mRNA of ACE2 [2]: significantly reduce
- protein level of ACE2 [2]: significantly reduce
- Nb Regulated Genes (Up/Down), GO:0009597 detection of virus ([5]; 5 genes in term, UREC cells, 2 micromolar PGE1 vs non treated control): 3 (3/0)
- Nb Regulated Genes (Up/Down), GO:0035455 response to interferon-alpha ([5]; 10 genes in term, UREC cells, 2 micromolar PGE1 vs non treated control): 4 (4/0)
- Nb Regulated Genes (Up/Down), R-HSA-918233 TRAF3-dependent IRF activation pathway ([5]; 14 genes in pathway, UREC cells, 2 micromolar PGE1 vs non treated control): 4 (4/0)
- Nb Regulated Genes (Up/Down), R-HSA-168928 RIG-I/MDA5 mediated induction of IFN-alpha/beta pathways ([5]; 17 genes in pathway, UREC cells, 2 micromolar PGE1 vs non treated control): 6 (6/0)
- Nb Regulated Genes (Up/Down), GO:0005164 tumor necrosis factor receptor binding ([5]; 29 genes in term, UREC cells, 2 micromolar PGE1 vs non treated control): 6 (5/1)
- Nb Regulated Genes (Up/Down), R-HSA-933541 TRAF6 mediated IRF7 activation ([5]; 33 genes in pathway, UREC cells, 2 micromolar PGE1 vs non treated control): 4 (4/0)
- Nb Regulated Genes (Up/Down), R-HSA-936440 Negative regulators of RIG-I/MDA5 signaling ([5]; 34 genes in pathway, UREC cells, 2 micromolar PGE1 vs non treated control): 5 (5/0)
- Nb Regulated Genes (Up/Down), GO:0045071 negative regulation of viral genome replication ([5]; 40 genes in term, UREC cells, 2 micromolar PGE1 vs non treated control): 11 (11/0)
- Nb Regulated Genes (Up/Down), GO:0060337 type I interferon signaling pathway ([5]; 64 genes in term, UREC cells, 2 micromolar PGE1 vs non treated control): 20 (20/0)
- Nb Regulated Genes (Up/Down), R-HSA-909733 Interferon alpha/beta signaling ([5]; 67 genes in pathway, UREC cells, 2 micromolar PGE1 vs non treated control): 20 (20/0)
- Nb Regulated Genes (Up/Down), GO:0060333 interferon-gamma-mediated signaling pathway [5, 6]: 8 (8/0)
- Nb Regulated Genes (Up/Down), GO:0071347 cellular response to interleukin-1 [5, 6]: 9 (5/4)
- Nb Regulated Genes (Up/Down), R-HSA-1169408 ISG15 antiviral mechanism ([5]; 73 genes in pathway, UREC cells, 2 micromolar PGE1 vs non treated control): 11 (11/0)
- Nb Regulated Genes (Up/Down), R-HSA-877300 Interferon gamma signaling ([5]; 88 genes in pathway, UREC cells, 2 micromolar PGE1 vs non treated control): 11 (11/0)
- Nb Regulated Genes (Up/Down), GO:0009615 response to virus ([5]; 110 genes in term, UREC cells, 2 micromolar PGE1 vs non treated control): 21 (19/2)
- Nb Regulated Genes (Up/Down), GO:0051607 defense response to virus ([5]; 165 genes in term, UREC cells, 2 micromolar PGE1 vs non treated control): 27 (25/2)
- Nb Regulated Genes (Up/Down), GO:0006954 inflammatory response ([5]; 379 genes in term, UREC cells, 2 micromolar PGE1 vs non treated control): 22 (12/10)
- Nb Regulated Genes (Up/Down), GO:0006955 immune response ([5]; 421 genes in term, UREC cells, 2 micromolar PGE1 vs non treated control): 26 (19/7)
- Nb Regulated Genes (Up/Down), GO:0045087 innate immune response ([5]; 430 genes in term, UREC cells, 2 micromolar PGE1 vs non treated control): 30 (27/3)
- Fold-Change BIRC3 ([5]; UREC cells, 2 micromolar PGE1 vs non treated control, regulation down): 1.67
- Fold-Change BST2 [5, 7]: 1.6
- Fold-Change DDX58 [5, 7]: 2.76
- Fold-Change DHX58 [5, 7]: 1.55
- Fold-Change EIF2AK2 [5, 7]: 1.74
- Fold-Change EIF4E3 [5, 7]: 1.72
- Fold-Change FAST DB STABLE ID GSHG0007017 (no gene symbol) [5, 7]: 3.58
- Fold-Change FAST DB STABLE ID GSHG0007018 (no gene symbol) [5, 7]: 1.93
- Fold-Change GBP2//GBP7 [5, 7]: 1.62
- Fold-Change GBP4 [5, 7]: 1.86
- Fold-Change HERC5 [5, 7]: 2.37
- Fold-Change HLA-DRA [5, 7]: 1.86
- Fold-Change IFI6 [5, 7]: 2.51
- Fold-Change IFI27 [5, 7]: 1.57
- Fold-Change IFI35 [5, 7]: 1.62
- Fold-Change IFIH1 [5, 7]: 2.45
- Fold-Change IFIT1 [5, 7]: 5.18
- Fold-Change IFIT2 [5, 7]: 4.84
- Fold-Change IFIT3 [5, 7]: 3.99
- Fold-Change IFITM1 [5, 7]: 2.35
- Fold-Change IRF7 [5, 7]: 1.88
- Fold-Change ISG15 [5, 7]: 1.89
- Fold-Change MIR3614//TRIM25 [5, 7]: 1.56
- Fold-Change MX1 [5, 7]: 3.68
- Fold-Change MX2 [5, 7]: 4.02
- Fold-Change OASL [5, 7]: 2.27
- Fold-Change RSAD2 [5, 7]: 3.79
- Fold-Change SAMHD1 [5, 7]: 1.89
- Fold-Change STAT1 [5, 7]: 1.73
- Fold-Change TNFSF12//TNFSF12-TNFSF13//TNFSF13 [5, 7]: 1.62
- Fold-Change TNFSF13B [5, 7]: 1.65
- Fold-Change TRIM14 [5, 7]: 2.02
- Fold-Change USP18 [5, 7]: 2.26
- Fold-Change XAF1 [5, 7]: 1.82
- expression of a major biological pathway related to viral infection and interferon signaling ([5]; UREC human cells): significantly modifies
- fold changes of IFN related genes IFIT1, IFIT2 and IFIT3 (overexpressed) ([5]; UREC human cells): > 3
- induction of IFN related gene across doses tested ([5]; UREC human cells, doses from 0.2 to 10 microM): consistent
